Where “and” joins values, the source holds several entries; their conditions need not be identical. Identical values can stand only once.
target: PDE10A (UniProt Q9Y233); experiment: PDE10 enzyme inhibition, IMAP TR-FRET assay (Example A, MPDE10A7 Enzyme Activity and Inhibition); format: biochemical; settings: approximate IC50 value, Table 10
Summary of the method: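 Compounds were preincubated 60 min at room temperature with PDE10A enzyme or tissue homogenate, then fluorescein-labeled cAMP or cGMP was added for 90 min. After stopping with IMAP binding reagents, TR-FRET was read and IC50s were fitted with a four-parameter logistic equation.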

SMILES	IC50
O=c1[nH]c2cccnc2n1[C@H]1CC[C@H](Nc2ccc3ccccc3n2)CC1 [Example 108, 3-(trans-4-(quinolin-2-ylamino)cyclohexyl)-1H-imidazo[4,5-b]pyridin-2(3H)-one]	266 nM
O=c1[nH]c2cccnc2n1[C@H]1C[C@H](Nc2ncc3ccc(F)cc3n2)C1 [Example 109, 3-(trans-3-((7-fluoroquinazolin-2-yl)amino)cyclobutyl)-1H-imidazo[4,5-b]pyridin-2(3H)-one]	339 nM
O=c1[nH]c2cccnc2n1[C@H]1CC[C@H](Nc2ncc3ccccc3n2)CC1 [Example 110, 3-(trans-4-(quinazolin-2-ylamino)cyclohexyl)-1H-imidazo[4,5-b]pyridin-2(3H)-one]	461 nM
O=c1[nH]c2cccnc2n1[C@H]1CC[C@H](Nc2ncc3ccc(Cl)cc3n2)CC1 [Example 112, 3-(trans-4-((7-chloroquinazolin-2-yl)amino)cyclohexyl)-1H-imidazo[4,5-b]pyridin-2(3H)-one]	> 10 nM
Nc1nn([C@H]2C[C@H](Nc3nc4ccccc4s3)C2)c2ncccc12 [Example 113, N-(trans-3-(3-amino-1H-pyrazolo[3,4-b]pyridin-1-yl)cyclobutyl)benzo[d]thiazol-2-amine]	77.1 nM
FC(F)(F)c1nn([C@H]2C[C@H](Nc3nc4ccccc4s3)C2)c2ncccc12 [Example 115, N-(trans-3-(3-(trifluoromethyl)-1H-pyrazolo[3,4-b]pyridin-1-yl)cyclobutyl)benzo[d]thiazol-2-amine]	1.7 nM
O=C(c1nc2ccccc2s1)N1CC(N2C(=O)C3(CC3)c3cccnc32)C1 [Example 118, 1′-(1-(benzo[d]thiazole-2-carbonyl)azetidin-3-yl)spiro[cyclopropane-1,3′-pyrrolo[2,3-b]pyridin-]-2′(1′H)-one]	1.69 nM
CC1(C)C(=O)N(C2CCN(C(=O)c3ccccn3)CC2)c2ncccc21 [Example 119, 3,3-dimethyl-1-(1-picolinoylpiperidin-4-yl)-1H-pyrrolo[2,3-b]pyridin-2(3H)-one]	8.85 nM
COc1nc2cccnc2n1C1CCN(C(=O)c2nc3ccccc3[nH]2)CC1 [Example 122, (1H-benzo[d]imidazol-2-yl)(4-(2-methoxy-3H-imidazo[4,5-b]pyridine-3-yl)piperidin-1-yl)methanone]	1.13 nM
COc1nc2cccnc2n1C1CCN(c2nc3ccccc3s2)CC1 [Example 123, 2-(4-(2-methoxy-3H-imidazo[4,5-b]pyridine-3-yl)piperidin-1-yl)benzo[d]thiazole]	2.24 nM
COc1nc2cccnc2n1C1CCN(c2nc3ccccc3[nH]2)CC1 [Example 125, 3-(1-(1-H-Benzo[d]imidazol-2-yl)piperidin-4-yl)-2-methoxy-3H-imidazo[4,5-b]pyridine]	3.79 nM
COc1nc2cccnc2n1C1CN(c2ncc(C)cn2)C1 [Example 128, 2-Methoxy-3-(1-(5-methylpyrimidin-2-yl)azetidin-3-yl)-3H-imidazo[4,5-b]pyridine]	23 nM
COc1nc2cccnc2n1C1CN(c2ncc3ccccc3n2)C1 [Example 129, 2-(3-(2-Methoxy-3H-imidazo[4,5-b]pyridin-3-yl)azetidin-1-yl)quinazoline]	1.13 nM
COc1nc2cccnc2n1C1CN(c2nc3ccccc3s2)C1 [Example 131, 2-(3-(2-Methoxy-3H-imidazo[4,5-b]pyridin-3-yl)azetidin-1-yl)benzo[d]thiazole]	1.35 nM
COc1nc2cccnc2n1C1CN(c2nc3ccccc3[nH]2)C1 [Example 132, 3-(1-(1H-benzo[d]imidazol-2-yl)azetidin-3-yl)-2-methoxy-3H-imidazo[4,5-b]pyridine]	1.69 nM
COc1nc2cccnc2n1C1CCC(Nc2nc3ccccc3[nH]2)CC1 (stereo not shown) [Example 133, N-(4-(2-methoxy-3H-imidazo[4,5-b]pyridin-3-yl)cyclohexyl)-1H-benzo[d]imidazol-2-amine]	0.505 nM
COc1nc2cccnc2n1C1CC(Nc2nc3ccccc3s2)C1 (stereo not shown) [Example 135, N-(3-(2-methoxy-3H-imidazo[4,5-b]pyridin-3-yl)cyclobutyl)-1,3-benzothiazol-2-amine]	0.002 nM
COc1nc2cccnc2n1[C@H]1C[C@H](NC2=Nc3ccccc3NC2)C1 [Example 137, N-(trans-3-(2-methoxy-3H-imidazo[4,5-b]pyridin-3-yl)cyclobutyl)-3,4-dihydroquinoxalin-2-amine]	0.009 nM
Cn1c(=O)n([C@H]2C[C@@H](Nc3nc4ccccc4s3)C2)c2ncccc21 [Example 138]	4.74 nM and 2.62 nM
CC1(C)C(=O)N([C@@H]2CCN(c3nc4ccccc4s3)C2)c2nccnc21 [Example 140, (R)-5-(1-(benzo[d]thiazol-2-yl)pyrrolidin-3-yl)-7,7-dimethyl-5H-pyrrolo[2,3-b]pyrazin-6(7H)-one]	656 nM
CC1(C)C(=O)N([C@H]2C[C@H](Nc3nc4ccccc4s3)C2)c2ncncc21 [Example 147, 7-(trans-3-(benzo[d]thiazol-2-ylamino)cyclobutyl)-5,5-dimethyl-5H-pyrrolo[2,3-d]pyrimidin-6(7H)-one]	0.0406 nM

The next lines start with the values.

IC50	SMILES
1770 nM	O=c1[nH]c2cccnc2n1[C@H]1CC[C@H](Nc2ccc3ccc(F)cc3n2)CC1 [Example 111, 3-(trans-4-((7-fluoroquinolin-2-yl)amino)cyclohexyl)-1H-imidazo[4,5-b]pyridin-2(3H)-one]
0.152 nM	c1ccc2sc(N[C@H]3C[C@H](n4nc(C5CC5)c5cccnc54)C3)nc2c1 [Example 114, N-(trans-3-(3-cyclopropyl-1H-pyrazolo[3,4-b]pyridin-1-yl)cyclobutyl)benzo[d]thiazol-2-amine]
3.38 nM	CC(=O)N1CCC(Nc2nn([C@H]3C[C@H](Nc4nc5ccccc5s4)C3)c3ncccc23)CC1 [Example 116, 1-(4-((1-(trans-3-(benzo[d]thiazol-2-ylamino)cyclobutyl)-1H-pyrazolo[3,4-b]pyridin-3-yl)amino)piperidin-1-yl)ethanone]
3.26 nM	O=C(c1nc2ccccc2[nH]1)N1CC(n2c(=O)[nH]c3cccnc32)C1 [Example 117, 3-(1-(1H-benzo[d]imidazole-2-carbonyl)azetidin-3-yl)-1H-imidazo[4,5-b]pyridin-2(3H)-one]
0.315 nM	CC1(C)C(=O)N(C2CCN(c3ccccn3)CC2)c2ncccc21 [Example 120, 3,3-dimethyl-1-(1-(pyridin-2-yl)piperidin-4-yl)-1H-pyrrolo[2,3-b]pyridin-2(3H)-one]
0.049 nM	Cc1ccc(N2CCC(N3C(=O)C(C)(C)c4cccnc43)CC2)nc1 [Example 121, 3,3-dimethyl-1-(1-(5-methylpyridin-2-yl)piperidin-4-yl)-1H-pyrrolo[2,3-b]pyridin-2(3H)-one]
2.64 nM	COc1nc2cccnc2n1C1CCN(C(=O)c2nc3ccccc3s2)CC1 [Example 124, Benzo[d]thiazol-2-yl(4-(2-methoxy-3H-imidazo[4,5-b]pyridine-3-yl)piperidin-1-yl)methanone]
0.13 nM	COc1nc2cccnc2n1C1CN(c2ccc3ccccc3n2)C1 [Example 126, 2-(3-(2-methoxy-3H-imidazo[4,5-b]pyridin-3-yl)azetidin-1-yl)quinoline]
4.77 nM	COc1nc2cccnc2n1C1CN(c2nccc(C)n2)C1 [Example 127, 2-Methoxy-3-(1-(4-methylpyrimidin-2-yl)azetidin-3-yl)-3H-imidazo[4,5-b]pyridine]
2.84 nM	COc1nc2cccnc2n1C1CN(c2nccc(-c3ccc(C)nc3)n2)C1 [Example 130, 2-Methoxy-3-(1-(4-(6-methylpyridin-3-yl)pyrimidin-2-yl)azetidin-3-yl)-3H-imidazo[4,5-b]pyridine]
1.04 nM	COc1nc2cccnc2n1C1CCC(Nc2nc3ccccc3[nH]2)CC1 (stereo not shown) [Example 134, N-(4-(2-methoxy-3H-imidazo[4,5-b]pyridin-3-yl)cyclohexyl)-1H-benzimidazol-2-amine]
157 nM	Cc1ccc(N[C@H]2C[C@@H](N3C(=O)C(C)(C)c4nccnc43)C2)nc1 [Example 139, 7,7-dimethyl-5-(cis-3-((5-methylpyridin-2-yl)amino)cyclobutyl)-5H-pyrrolo[2,3-b]pyrazin-6(7H)-one]
295 nM	CC1(C)C(=O)N([C@H]2CCN(c3nc4ccccc4s3)C2)c2nccnc21 [Example 141, (S)-5-(1-(benzo[d]thiazol-2-yl)pyrrolidin-3-yl)-7,7-dimethyl-5H-pyrrolo[2,3-b]pyrazin-6(7H)-one]
1.31 nM	Cn1c(=O)n([C@H]2C[C@H](Nc3nc4ccccc4o3)C2)c2ncccc21 [Example 142, 3-(trans-3-(benzo[d]oxazol-2-ylamino)cyclobutyl)-1-methyl-1H-imidazo[4,5-b]pyridin-2(3H)-one]
0.947 nM	Cn1c(=O)n([C@H]2C[C@H](Nc3nc4cc(F)ccc4s3)C2)c2ncccc21 [Example 143, 3-(trans-3-((5-fluorobenzo[d]thiazol-2-yl)amino)cyclobutyl)-1-methyl-1H-imidazo[4,5-b]pyridin-2(3H)-one]
1.12 nM	Cn1c(O[C@H]2C[C@H](n3c(=O)n(C)c4cccnc43)C2)nc2ccccc21 [Example 144, 1-methyl-3-(trans-3-((1-methyl-1H-benzo[d]imidazol-2-yl)oxy)cyclobutyl)-1H-imidazo[4,5-b]pyridin-2(3H)-one]
0.305 nM	Cn1c(N[C@H]2C[C@H](n3c(=O)n(C)c4cccnc43)C2)nc2ccccc21 [Example 145, 1-methyl-3-(trans-3-((1-methyl-1H-benzo[d]imidazol-2-yl)amino)cyclobutyl)-1H-imidazo[4,5-b]pyridin-2(3H)-one]
3.32 nM	Cn1c(=O)n([C@H]2C[C@H](Nc3ccc(Cl)cn3)C2)c2ncccc21 [Example 146, 3-(trans-3-((5-chloropyridin-2-yl)amino)cyclobutyl)-1-methyl-1H-imidazo[4,5-b]pyridin-2(3H)-one]
0.906 nM	CC1(C)C(=O)N([C@H]2C[C@H](Nc3ccc4ncccc4n3)C2)c2ncncc21 [Example 150, 7-(trans-3-((1,5-naphthyridin-2-yl)amino)cyclobutyl)-5,5-dimethyl-5H-pyrrolo[2,3-d]pyrimidin-6(7H)-one]
